Measurements reported in US20210000890A1, “COMPOSITIONS AND METHODS FOR DENTAL CARE” (The State of Israel, Ministry of Agriculture & Rural …, priority 2019, published 2021).

Assays:
S. mutans biofilm = assay: Mono and dual-species biofilm formation, biofilm biomass by Crystal Violet staining; type: cell-based, Streptococcus mutans UA159; conditions: S. mutans cultured as monospecies in TY with the sugar alcohol, 24 h
Experimental: For B. subtilis mono-species biofilm, a starter culture was diluted 1:100 (to obtain final O.D (600 nm)=0.07)) into TY or TY supplemented with either 2% sucrose or sorbitol or mannitol at various concentrations (10, 25,50,100 or 125 mM) in 96-well plate (Nunc, Roskilde, Denmark). The plate was incubated at 37° C. in 95% air/5% CO2 for 24 h.
For S. mutans mono-species biofilm, overnight cultured S. mutans (O.D (600 nm)=1)) were diluted 1:10 into TY or TY supplemented with 2% sucrose (served as controls) or TY supplemented with different concentration of sorbitol or mannitol (10, 25,50,100 or 125 mM) into 96-well plate (Nunc). The plate was incubated at 37° C. in 95% air/5% CO2 for 24 h. For dual-species biofilm, cells of B. subtilis and S. mutans were grown into 96-well plate as follows: to fresh TY or TY supplemented with 2% sucrose or different concentration of sorbitol or mannitol (10, 25, 50, 100 or 125 mM) were introduced overnight cultured S. mutans (diluted by a ratio 1:10, approximately 2.5×10^7 CFU) and B. subtilis (diluted by a ratio 1:100, approximately 2.5×10^5 CFU). […]
The generated submerged biofilms were washed carefully twice with saline solution. […] The extract was placed in a new 96-well plate and O.D. at 595 nm was measured using a plate reader instrument (infinite PRO2000, NEOTEC Scientific Instrumentation Ltd. Camspec, Cambridge, United Kingdom)^31,32.

S. mutans = assay: Growth curve analysis (O.D. 595 nm); type: cell-based, Streptococcus mutans UA159; conditions: for growth of S. mutans: M9 minimal medium, 50 mM as sole carbon source, 16 h; for lag phase of S. mutans: TY medium supplemented with the sugar alcohol, different concentrations
Experimental: For growth curve analysis, B. subtilis or S. mutans cultures grown as described above, were diluted (1:100 or 1:10 respectively) in TY or TY supplemented with 2% sucrose or different concentration of sorbitol or mannitol. When needed, the bacteria were diluted in M9 medium with 0.2% glucose or 50 mM sorbitol/mannitol. The cultures were then incubated at 37° C. overnight with slight shaking. The growth was recorded every hour using optical density measurement at 595 nm (infinite […]).

[1] = system: mltD (mannitol-1-phosphate 5-dehydrogenase); assay: Relative gene expression by real-time RT-PCR; type: cell-based, B. subtilis; conditions: TY with 50 mM sugar alcohol vs TY alone (=1)
Experimental: (§1) The cultures of either B. subtilis or S. mutans grown as described above, were diluted (1:100 or 1:10 respectively) in TY or TY supplemented with 50 mM sorbitol or mannitol. Next, B. subtilis were grown 37° C. at 150 rpm while S. mutans at 37° C. in 95% air/5% CO2. Samples for each treatment were taken after 3, 6, 12, 18 and 24 hours. One mL of RNA protect (Qiagen, Hilden, Germany) was added to each sample and incubated at RT for 5 min. After, the cells were centrifuged at 4,000×g for 10 min. RNA extraction preformed using GenUP total RNA kit (biotechrabbit, Hennigsdorf, Germany) according to the manufacture's protocol. Reverse transcription was performed using qScript cDNA synthesis kit (Quantabio, Beverly, Mass., USA).The synthesized cDNA was later used for the real-time PCR analysis of key enzymes in the metabolic pathway of S. mutans and B. subtilis (Sorbitol dehydrogenase (gutB) or Mannitol-1-phosphate 5-dehydrogenase (mltD)). The RT-PCR reaction was performed as described previously^33. Briefly, RT-PCR reaction mixture (20 μL) contained 1×SYBR Green (Invitrogen, California, USA), 1 μL cDNA sample and […] of the appropriate forward and reverse PCR primers. PCR conditions included an initial denaturation at 95° C. for 10 min, followed by a 40-cycles of amplification, consisting of denaturation at 95° C. for 15 s and annealing and extension at 60° C. for 1 min. Contamination by residual genomic DNA was determined from control reactions devoid of reverse transcriptase. The expression levels of all the tested genes by real-time PCR were normalized using the 16S rRNA gene of S. mutans as an internal standard ([…] et al., 2007) or sigA gene for B. subtilis.

[2] = system: gutB (sorbitol dehydrogenase); assay: Relative gene expression by real-time RT-PCR; type: cell-based, B. subtilis; conditions: TY with 50 mM sugar alcohol vs TY alone (=1)
Experimental: as §1

Compound | S. mutans monospecies biofilm compared to the TY control (S. mutans biofilm) | growth of S. mutans (S. mutans) | lag phase of S. mutans (S. mutans) | maximal induction rate of mltD ([1]; after 3 hours) [folds] | induction of mltD ([1]; after 6 hours until 24 hours) [fold] | maximal induction rate of gutB ([2]; after 3 hours) [folds] | induction of gutB ([2]; after 6 hours until 24 hours) [fold]
OC[C@@H](O)[C@@H](O)[C@H](O)[C@H](O)CO [mannitol] | enhanced biofilm | did not grow | approximately 3 hours | 1.6 | 1.2 | – | –
OC[C@@H](O)[C@@H](O)[C@H](O)[C@@H](O)CO [sorbitol] | enhanced biofilm | did not grow | approximately 3 hours | – | – | 2 | 1.6
